Laboratory results from US6391901B1, “Thrombin inhibitors” (Eli Lilly and Company, priority 1997, dated 2002).
Where a name gives a salt, the structure may show the parent alone.

| Compound | melting point |
| --- | --- |
| COc1cc(C(=O)c2c(-c3ccc(NS(=O)(=O)c4ccccc4)cc3)sc3cc(O)ccc23)ccc1CN1CCCC1 (as salt: oxalate) [Example 32, 6-Hydroxy-2-[4-(phenylsulfonylamino)phenyl)benzo[b]thiophen-3-yl 3-Methoxy-4-(1-pyrrolidinylmethyl)phenyl Ketone Oxalate] | 180 °C (dec.) |
| COc1cc(Cc2c(-c3ccc(NS(=O)(=O)c4ccccc4)cc3)sc3cc(O)ccc23)ccc1CN1CCCC1 (as salt: oxalate) [Example 31, 6-Hydroxy-3-[3-methoxy-4-(1-pyrrolidinylmethyl)benzyl]-2-[4-(phenylsulfonylamino)phenyl]benzo[b]thiophene Oxalate] | 150 °C (dec.) |
